The test system of the assay is CD4+T cells from OT-II mice on BMDCs. Put plainly: OT-II CD4+ T cell proliferation. It is filed as cell-based, mouse. To be noted: BMDCs treated with OVA-loaded coacervates 24 h, CTV-labeled OT-II T cells ~66 h, flow cytometry. How it is done:
page 14: parameters across two channels: eGFP and DAPI. […] Cells were incubated at 37°C (protected from light) for 20 min, after which 5× staining volume of EasySep Buffer was added for another 5 min of incubation. The cells were counted again, centrifuged at 300 g for 5 min, resuspended in RPMI-1640 (Gibco 31800- 022) with 10% FBS (R and D Systems […]), 10 mM HEPES (Sigma H0887), 1× MEM NEAA (Gibco 11140-050), 1 mM sodium pyruvate (Gibco 11360-070), 1× pen-strep glutamine (Gibco 10378-016), and 55 μM β-mercaptoethanol (Gibco 21985-023) added fresh, and then plated onto treated BMDCs. The plates were incubated for ~66 h, after which supernatants were collected for Mouse Adaptive Immune CodePlex Secretome analyses (Bruker Cellular Analysis, Inc), and cells were collected for flow cytometry studies. Flow cytometry Total cells from the spleen and lymph nodes of OT-I/OT-II mice were washed with FACS […] staining. […] Data were analyzed with FlowJo version 10. Proliferation was quantified as the percentage of daughter cells out of single, live, CD4+ or CD8+T cells, gated as having a lower CTV fluorescence intensity than the peak of highest fluorescence (undivided). […] Data are expressed as mean ± S.E.M. and statistical analysis was performed using a one-way or two-way ANOVA with Tukey/Sidak's/Dunnett's multiple comparison test. *p ≤ 0.05, **p ≤ 0.01, ***p ≤ 0.001, ****p ≤ 0.0001. […]
(In flow cytometry, cells or beads pass a laser one at a time.)

Consider 1 substance from PMC11955804, “Histidine-rich enantiomeric peptide coacervates enhance antigen sequestration and presentation to T cells” (Chemical Science, 2025).

On to (GHGLY)4 [GL 20], for which the “CD4+T cell proliferation” value was “slightly higher”.
